System: melanin production induced by α-MSH
Assay: Inhibition of melanin production induced by α-MSH
Assay type: cell-based
Conditions: for Melanin content (%), Mean: α-MSH 0.1 μM 24 hours + TA treat 24 hours, 0.2% DMSO, α-MSH group = 100.0
Excerpt: This example explores the bioactivity of the synthesized oxyresveratrol compound in inhibiting melanin production as relative to commercial oxyresveratrol extracted from plant sources.

Compound | Inhibition of melanin production induced by α-MSH (in words) (32 and 128 μM) | Melanin content (%), Mean (TA conc. 32 μM) | Melanin content (%), Mean (TA conc. 128 μM) | Inhibitory activity on melanin production compared with the commercial material (in words) (e.g., at 128 μM)
Oc1cc(O)cc(/C=C/c2ccc(O)cc2O)c1 [Commercial, oxyresveratrol] | inhibited melanin production | 77.4% | 45.5% | –
Oc1cc(O)cc(/C=C/c2ccc(O)cc2O)c1 [Synthetic, oxyresveratrol] | – | 75.7% | 38.5% | greater inhibitory activity

— patent US20250154089A1, “METHODS FOR PREPARING OXYRESVERATROL AND DERIVATIVES THEREOF” (Caliway Biopharmaceuticals Co., Ltd., priority 2023, published 2025)
